“Also recorded” adds a separate entry of the source.
Assays:
Type in all cases: in vivo
Tygress tomato plants [1] = assay: Foliar nutrient concentration at 6 WAT, open-field tomato (Examples 7-10); settings: in vivo
How it was run: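 Open-field Florida trial, spring 2008: transplants at 4-true-leaf stage on drip-irrigated raised beds were foliar-sprayed at 3 and 5 WAT (BIOX-CM at 4 and 5 WAT) at 60 gal/acre with non-ionic surfactant. Most recent mature leaves were sampled at 6 WAT. Tomato fruit was USDA-graded and analysed for minerals.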

Tygress tomato plants [2] = assay: Foliar nutrient concentration at 7 WAT, greenhouse tomato spring 2009 (Examples 13-15); settings: 7 WAT (1 week after treatment)
Experimental: (§1) The following experiments were performed in a green house during the spring of 2009 at GCREC, Balm, University of Florida. Crop set-up, procedures and variables were as follows.
(§2) Transplants of ‘Tygress’ tomato plants were planted in 2-gallon pots filled with commercial planting medium with nutrient concentration of Fe, Zn, Mn, Cu being negligible and insufficient for crop growth. Irrigation and non-micronutrient fertilizer were provided daily through microsprinklers at recommended rates for tomato production in Florida. No pesticides were used. Treatments were as described in Tables 42, 43, and 44 below. BIOX-Cu was compared to Cu-sulfate, BIOX-EDC, and BIOX-O; and BIOX-Fe was compared to Fe-sulfate and BIOX-EDF. BIOX-MEZ is Ca-HMTBA.
(§3) Treatments were applied at 6 WAT (weeks after transplanting) using a water volume of 200 mL/plant. Deionized water was used for foliar applications. A non-ionic surfactant was added. Other nutrients were applied as appropriate under non-limiting conditions.
Foliar tissue nutrient analysis was performed at 3 WAT (i.e., 3 weeks before treatment) and 7 WAT (i.e., 1 weeks after treatment) on the non-applied newest leaves. The concentrations of N, P, K, Mg, Ca, B, Zn, Mn, Fe, and Cu in the foliar tissue were determined by a commercial laboratory. There were no significant differences between the foliar nutrient concentrations of any of the treatment groups prior to treatment.
(§4) Experimental design was a randomized complete block design with 6 replications. Data were analyzed using a general linear model, and means were separated using an LSD test at the 5% significance level.

Tygress tomato plants [3] = assay: Marketable yield, open-field tomato (Examples 7-10); settings: in vivo
Experimental: (§5) The following experiments were performed in open-field plots during the spring of 2008 at GCREC, Balm, University of Florida. Four products delivering Zn (BIOX-Z), Mn (BIOX-M), Cu (BIOX-Cu), and Fe (BIOX-Fe) were compared to other micronutrient supplement formulations in tomato and bell pepper plants.
(§6) The plot sizes for the tomato plants were 30-ft plots (15 plants per plot) and 15-ft plots were used for the bell pepper plants (30 plants per plot). Crop set-up, procedures and variables were as follows.
(§7) Transplants of ‘Tygress’ tomato plants and ‘Patriot’ bell pepper plants in the 4-true leaf stage (about 6 inches tall) were planted in raised beds in open-field plots. The cross-section of each raised bed was 28 inches wide at the top, 32 inches wide at the base, and 8 inches tall. Irrigation and non-micronutrient fertilizer were provided daily through two drip lines per bed (0.45 gal/100 ft bed/min) at recommended rates for tomato and bell pepper production in Florida. […] The height of the plants for each of the treatment groups was measured at 3 weeks after transplantation (WAT), just prior to treatment with the experimental foliar fertilizers.
(§8) All foliar fertilizers except BIOX-CM were applied to the various treatment groups at 3 weeks after transplantation (WAT) and again at 5 WAT. The BIOX-CM treatment was applied at 4 and 5 WAT. The working water volume was 60 gal/acre and a non-ionic surfactant (Ad-Spray 80) was added in the amount of 2 pints/100 gal water. All plots were sprayed with sprayers pressurized at 25 psi and the canopies of both crops were covered with the micronutrient solutions. Treated plots were isolated during foliar fertilizer application to avoid the cross-contamination of other treatments on adjoining plots.
(§9) Leaf samples were collected from the most recent mature leaves from each plant at 6 WAT (2 weeks after initial treatment). Foliar tissue analysis was performed by a commercial laboratory to determine the concentration of N, P, K, Mg, Ca, B, Zn, Mn, Fe, and Cu. Tomato marketable fruit weights were collected at 10 and 12 WAT, and the fruits were graded according to USDA standards. Pepper marketable fruit weights were determined beginning at 5 WAT over 5 weekly harvests. Fruit mineral analysis (N, P, K, Mg, Ca, B, Zn, Mn, Fe, and Cu) was performed on samples from the tomato harvest.
(§10) The experimental design was a randomized complete block design with 5 replications for each treatment. All comparison data were analyzed using a general linear model and the means of each treatment were separated with a Fisher's protected LSD test at the 5% significance level.

[4] = tested on: Patriot bell pepper plants; assay: Foliar nutrient concentration at 6 WAT, open-field bell pepper (Examples 7-10); settings: in vivo
Experimental: as §5, §6, §7, §8, §9, §10

Florida-47 tomato = settings: in vivo
Experimental: (§11) The following experiments were performed in a green house during the fall of 2007 at GCREC, Balm, University of Florida. Fifteen products, at 3 different application rates were examined. The plot size was 2-gallon pots. Crop set-up, procedures and variables were as follows.
(§12) Transplants of ‘Florida-47’ tomato and ‘Aristotle’ bell pepper plants in the 4-true leaf stage (about 6 inches tall) were planted in 2-gal pots on Aug. 27, 2007. Pots were filled with a commercially available planting medium. This medium was selected based on the mineral composition of the products to be applied without providing significant nutritional inputs to the crops. Irrigation was provided with drip lines delivering between 0.50 and 0.33 gal/day/pot for tomato and bell pepper, respectively, and the crops were irrigated three times per day. No foliar pesticides were necessary.
(§13) There were four control treatments corresponding to each target micronutrient in which non-Fe, non-Mn, non-Zn or non-Cu pots received all other essential nutrients under non-limiting conditions.
(§14) Treatments were applied at three rates (high, medium and low) obtained from the estimated concentration of Zn, Fe, Cu, and Mn foliarly-applied in tomato and bell pepper in field situations (Table 1). Products were weighed and dissolved in 200 ml of deionized water with a non-ionic surfactant and applied to the newly-matured open leaves of each crop at 3 and 7 weeks after transplant (WAT). Treated pots were isolated during application to avoid cross-contamination of other treatments.
(§15) Medium nutrient concentration was determined 1 week before treatment. The mineral composition of the medium was 26.8 ppm NH4—N, 49 ppm NO3—N, 15.8 ppm P, 91.2 ppm K, 82.3 ppm Ca, 58.2 ppm Mg, 23.9 ppm Na, 125.6 ppm S, 1.33 ppm Fe, 0.39 ppm Mn, 0.35 ppm Zn, 0.05 pp, Cu, 0.04 ppm B, 0 ppm Mo, 0.73 ppm Al, and 12.1 ppm Si. The pH of the medium was 5.36 and the electric conductivity was 1.38 mS/cm. The foliar tissue analysis was performed at 6 WAT and the concentration of N, P, K, Mg, Ca, S, B, Zn, Mn, Fe, and Cu was determined by a commercial laboratory. Plant toxicity was determined at 4 WAT by using a 0-10 visual scale, where 0=no visible damage and 10=total plant death. Marketable fruit weight was collected 2 times in bell pepper and 4 times in tomato following USDA standards.
(§16) Data were analyzed using a general linear model, and means were separated using orthogonal contrasts at the 5% significance level.

Aristotle bell pepper = settings: in vivo
Experimental: as §11, §12, §13, §14, §15, §16

Tygress tomato plants [5] = assay: Nutrient concentration of tomato fruits at 10 WAT, open field (Examples 7-10); settings: in vivo
Experimental: as §5, §6, §7, §8, §9, §10

Tygress tomato plants [6] = settings: BIOX-Cu at 0.46 and 0.55 lb/acre; Cu-sulfate at 0.8 lb/acre; BIOX-EDC at 0.4 lb/acre
Experimental: as §1, §2, §3
Toxicity of the treatments was assessed by rating foliar tissue using a visual scale, where 0=no injury and 10=plant death.
as §4

Tygress tomato plants [7] = assay: Yields of tomato fruits, greenhouse spring 2009 (Examples 13-15); settings: BIOX-Cu at 0.46 and 0.55 lb/acre; Cu-sulfate at 0.8 lb/acre; BIOX-EDC at 0.4 lb/acre
Experimental: as §1, §2, §3
Marketable fruit were collected three times during the growing season, starting at 10 WAT (4 weeks after the initial treatment). Tomato fruit was graded as marketable and non-marketable. Marketable fruit was sized as extra-large, large, and medium. Non-marketable fruit were harvested and number and weight recorded but not sized.
as §4

[8] = tested on: Patriot bell pepper plants; assay: Marketable yield, open-field bell pepper (Examples 7-10); settings: in vivo
Experimental: as §5, §6, §7, §8, §9, §10

SMILES: O=S(=O)([O-])[O-].[Cu+2] [BIOX-INC, copper sulfate]
- Foliar B concentration of tomato plants (Tygress tomato plants [1]): 40 ppm
- Foliar Ca concentration of tomato plants (Tygress tomato plants [1]): 2.0%
- Foliar Cu concentration of tomato plants (Tygress tomato plants [1]): 503 a ppm
- Foliar Fe concentration of tomato plants (Tygress tomato plants [1]): 71 ppm
- Foliar K concentration of tomato plants (Tygress tomato plants [1]): 5.3%
- Foliar Mg concentration of tomato plants (Tygress tomato plants [1]): 0.60%
- Foliar Mn concentration of tomato plants (Tygress tomato plants [1]): 208 ppm
- Foliar N concentration of tomato plants (Tygress tomato plants [1]): 4.7%
- Foliar P concentration of tomato plants (Tygress tomato plants [1]): 0.17%
- Foliar Zn concentration of tomato plants (Tygress tomato plants [1]): 281 ppm
- Foliar concentration of Cu of tomato plants compared to control, statement (Tygress tomato plants [1]): significant increase in the foliar concentration of Cu
- Copper concentrations in tomato leaves, statement (Tygress tomato plants [2]): highest leaf copper concentrations
- Marketable yield, Tomato (Tygress tomato plants [3]): 17.4 a ton/acre
- Tomato marketable yield compared to control, statement (Tygress tomato plants [3]): significantly increased tomato marketable yields relative to control; also recorded: significantly higher marketable yield of tomato fruits compared to control
- Foliar B concentration of bell pepper plants [4]: 39 ppm
- Foliar Ca concentration of bell pepper plants [4]: 2.0%
- Foliar Cu concentration of bell pepper plants [4]: 503 a ppm
- Foliar Fe concentration of bell pepper plants [4]: 71 ppm
- Foliar K concentration of bell pepper plants [4]: 5.3%
- Foliar Mg concentration of bell pepper plants [4]: 0.60%
- Foliar Mn concentration of bell pepper plants [4]: 208 ppm
- Foliar N concentration of bell pepper plants [4]: 4.7%
- Foliar P concentration of bell pepper plants [4]: 0.17%
- Foliar Zn concentration of bell pepper plants [4]: 281 ppm
- Foliar concentration of Cu of bell pepper plants compared to control, statement [4]: significant increase in the foliar concentration of Cu
- Tomato toxicity (Florida-47 tomato): 0
- Pepper toxicity (Aristotle bell pepper): 0
- B concentration of tomato fruits (Tygress tomato plants [5]): 21 ppm
- Ca concentration of tomato fruits (Tygress tomato plants [5]): 0.2%
- Cu concentration of tomato fruits (Tygress tomato plants [5]): 22 ppm
- Fe concentration of tomato fruits (Tygress tomato plants [5]): 85 ppm
- K concentration of tomato fruits (Tygress tomato plants [5]): 8.0%
- Mg concentration of tomato fruits (Tygress tomato plants [5]): 0.38%
- Mn concentration of tomato fruits (Tygress tomato plants [5]): 42 ppm
- N concentration of tomato fruits (Tygress tomato plants [5]): 4.4%
- P concentration of tomato fruits (Tygress tomato plants [5]): 0.68%
- Zn concentration of tomato fruits (Tygress tomato plants [5]): 332 ppm
- Toxicity compared to non-treated control plants, statement (Tygress tomato plants [6]): increased levels of toxicity
- Marketable tomato yields compared to non-treated control, statement (Tygress tomato plants [7]): did not alter marketable yields relative to the non-treated control
- Marketable yield, Bell Pepper [8]: 7.3 ton/acre
